The source of these data is ChEMBL document CHEMBL1201862, “PubChem BioAssay data set” (2004).

For one assay, the system named is Candida albicans. Kind of assay: resistant Candida growth with fluconazole co-treatment – CaCi-8 strain, Alamar Blue, dry powder, set 2, dose response (AID 488909). The class given is functional, organism-based.
The next assay deals with T1, Hexokinase HKDC1 (Homo sapiens, UniProt Q2TB90).
T1 sequence (Q2TB90 whole entry): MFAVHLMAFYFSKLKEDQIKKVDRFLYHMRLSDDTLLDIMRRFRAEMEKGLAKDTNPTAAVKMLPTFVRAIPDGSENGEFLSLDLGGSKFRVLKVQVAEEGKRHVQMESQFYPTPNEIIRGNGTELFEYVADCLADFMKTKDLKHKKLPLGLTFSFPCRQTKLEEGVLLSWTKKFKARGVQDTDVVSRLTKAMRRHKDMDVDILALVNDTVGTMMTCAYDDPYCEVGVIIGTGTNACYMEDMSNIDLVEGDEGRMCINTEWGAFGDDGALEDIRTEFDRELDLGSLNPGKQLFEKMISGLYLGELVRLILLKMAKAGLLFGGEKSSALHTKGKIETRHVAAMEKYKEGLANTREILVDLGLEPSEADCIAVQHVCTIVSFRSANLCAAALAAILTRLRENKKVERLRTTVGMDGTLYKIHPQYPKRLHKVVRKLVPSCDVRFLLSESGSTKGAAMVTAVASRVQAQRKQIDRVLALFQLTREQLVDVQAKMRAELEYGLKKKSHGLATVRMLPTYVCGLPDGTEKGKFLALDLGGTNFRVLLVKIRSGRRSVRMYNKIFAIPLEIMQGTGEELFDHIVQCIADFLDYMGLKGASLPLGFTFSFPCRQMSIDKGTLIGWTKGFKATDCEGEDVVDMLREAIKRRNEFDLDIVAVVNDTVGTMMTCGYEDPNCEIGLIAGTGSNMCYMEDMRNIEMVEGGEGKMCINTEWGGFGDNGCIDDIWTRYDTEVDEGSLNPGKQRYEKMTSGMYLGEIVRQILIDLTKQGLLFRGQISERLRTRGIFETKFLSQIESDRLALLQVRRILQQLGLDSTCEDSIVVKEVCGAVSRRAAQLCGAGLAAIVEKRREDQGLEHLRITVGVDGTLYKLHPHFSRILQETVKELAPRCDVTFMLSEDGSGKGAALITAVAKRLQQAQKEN
Kind of assay: SAR analysis of small molecule inhibitors of hexokinase domain containing I (HKDC1). [Related pubchem assays (depositor defined):AID493160, AID493190]. The class given is functional.

For a further assay, the target named is T2, Hexokinase-1 (Homo sapiens, UniProt P19367).
T2 sequence (P19367 whole entry): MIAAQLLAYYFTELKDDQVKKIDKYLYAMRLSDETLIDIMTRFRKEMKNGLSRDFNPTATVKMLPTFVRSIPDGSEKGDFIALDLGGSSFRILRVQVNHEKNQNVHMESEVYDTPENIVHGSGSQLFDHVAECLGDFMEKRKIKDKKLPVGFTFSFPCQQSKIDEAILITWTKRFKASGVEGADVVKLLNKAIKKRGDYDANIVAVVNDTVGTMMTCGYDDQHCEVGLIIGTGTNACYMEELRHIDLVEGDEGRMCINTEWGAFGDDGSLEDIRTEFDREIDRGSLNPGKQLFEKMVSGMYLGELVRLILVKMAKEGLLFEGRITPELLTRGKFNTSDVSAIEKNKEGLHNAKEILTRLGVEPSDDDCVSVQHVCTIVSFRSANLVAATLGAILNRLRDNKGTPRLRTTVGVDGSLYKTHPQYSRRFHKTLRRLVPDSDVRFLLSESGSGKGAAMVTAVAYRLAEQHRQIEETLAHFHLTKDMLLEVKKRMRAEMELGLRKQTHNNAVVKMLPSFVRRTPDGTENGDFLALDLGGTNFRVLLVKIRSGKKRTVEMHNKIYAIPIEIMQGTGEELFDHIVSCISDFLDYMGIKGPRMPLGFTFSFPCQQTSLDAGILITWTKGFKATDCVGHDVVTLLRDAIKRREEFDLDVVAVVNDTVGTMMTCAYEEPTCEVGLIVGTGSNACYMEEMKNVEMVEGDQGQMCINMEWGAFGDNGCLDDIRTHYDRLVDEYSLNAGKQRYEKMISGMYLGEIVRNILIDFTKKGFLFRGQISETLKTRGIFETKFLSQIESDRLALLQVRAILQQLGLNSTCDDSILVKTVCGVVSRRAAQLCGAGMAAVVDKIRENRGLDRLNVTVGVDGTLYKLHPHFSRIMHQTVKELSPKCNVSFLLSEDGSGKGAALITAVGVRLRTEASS
Kind of assay: SAR analysis of small molecule inhibitors of hexokinase domain containing I (HKDC1) in the hexokinase 1 selectivity assay. [Related pubchem assays (depositor defined):AID493160, AID493190]. The class given is functional.

For assay [1], the target named is Induced myeloid leukemia cell differentiation protein Mcl-1 (Homo sapiens, UniProt Q07820). Kind of assay: blockers of MCL1 binding to BIM peptide – biochemical, fluorescence polarization, BIM-BH3 peptide, 1536-well, dose response (AID 2217).
Induced myeloid leukemia cell differentiation protein Mcl-1, sequence (Q07820 whole entry): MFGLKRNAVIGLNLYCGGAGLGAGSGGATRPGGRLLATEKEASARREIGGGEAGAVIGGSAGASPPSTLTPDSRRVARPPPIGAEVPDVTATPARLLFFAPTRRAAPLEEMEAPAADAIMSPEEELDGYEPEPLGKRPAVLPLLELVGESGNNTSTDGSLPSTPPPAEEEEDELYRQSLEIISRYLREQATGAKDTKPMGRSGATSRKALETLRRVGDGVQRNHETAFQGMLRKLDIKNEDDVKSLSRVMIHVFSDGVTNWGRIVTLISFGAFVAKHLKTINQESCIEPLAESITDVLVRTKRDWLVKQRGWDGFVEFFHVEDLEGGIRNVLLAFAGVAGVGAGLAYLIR
Assay [2] can be described thus: viability loss in THP-1 monocytes – THP-1 cells, cytotoxicity control for Vif-APOBEC3G degradation inhibitor project, dose response (AID 1117359). The class given is functional. The conditions noted are these: THP-1.
Assay [3] deals with Streptococcus sp. 'group A'. Kind of assay: Streptococcus pyogenes SK(-)GAS viability under kanamycin – luminescence, BacTiterGlo, confirmation, counter-screen for streptokinase expression inhibitor project, dose response (AID 1900). The class given is functional, organism-based. A general note: Counterscreens check selectivity or assay interference.
Assay [4] has as its system Escherichia coli. Nature of the assay: microbe, parasite or virus in culture.
The target in another assay is NS3 (Hepatitis C virus, UniProt A3EZJ3). Nature of the assay: PubChem AID 2173. Also on record: species or system Hepacivirus hominis.
NS3, sequence (A3EZJ3 whole entry): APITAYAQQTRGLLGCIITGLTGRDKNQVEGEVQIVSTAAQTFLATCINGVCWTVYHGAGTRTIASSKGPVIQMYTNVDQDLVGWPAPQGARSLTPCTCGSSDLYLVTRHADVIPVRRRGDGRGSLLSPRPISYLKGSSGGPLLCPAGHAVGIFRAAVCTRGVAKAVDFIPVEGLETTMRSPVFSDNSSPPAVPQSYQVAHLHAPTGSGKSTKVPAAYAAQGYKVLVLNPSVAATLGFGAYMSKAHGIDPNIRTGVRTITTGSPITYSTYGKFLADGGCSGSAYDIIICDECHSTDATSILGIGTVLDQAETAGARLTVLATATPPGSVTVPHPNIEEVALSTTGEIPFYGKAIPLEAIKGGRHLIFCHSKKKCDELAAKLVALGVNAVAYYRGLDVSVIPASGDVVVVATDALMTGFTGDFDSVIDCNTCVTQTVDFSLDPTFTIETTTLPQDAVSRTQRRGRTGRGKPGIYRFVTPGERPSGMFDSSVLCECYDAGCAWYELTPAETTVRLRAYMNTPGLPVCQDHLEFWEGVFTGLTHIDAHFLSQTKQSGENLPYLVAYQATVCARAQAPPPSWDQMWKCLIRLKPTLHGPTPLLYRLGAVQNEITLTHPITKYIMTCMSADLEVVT
For assay [5], the system named is Escherichia coli. Kind of assay: microbe, parasite or virus in culture. This is another data set of the same source.
Assay [6] in a line: HIV-1 AD8 envelope cell-cell fusion blockers – cherry-pick, dose response (AID 652062).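 Also: luciferase signal from cell-cell fusion driven by HIV-1 clade B AD8 Env; potency is for inhibitors of fusion seen as a drop in luminescence.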 The class given is functional, cell-based.
A further assay relates to Salmon testes DNA. Nature of the assay: acridine orange-DNA binding displacement – biochemical, fluorescence polarization, cherry-picked samples, set 2, artefact control for KSHV LANA DNA-binding inhibitor project, dose response (AID 504727). More on the design: species or system Salmonidae. A general note: Fluorescence polarisation rises when a labelled molecule tumbles more slowly, as on binding a larger partner.

For a further assay, the system named is Streptococcus. Kind of assay: GAS UMAA2166 growth inhibition – luminescence, BacTiterGlo, counter-screen for streptokinase expression inhibitor project, dose response (AID 1915).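 Also: potency for reduction of bacterial viability or growth.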 The class given is functional, organism-based.
Another assay has as its target T3, ORF 73 (Human herpesvirus 8, UniProt O40947).
T3 sequence (O40947 whole entry): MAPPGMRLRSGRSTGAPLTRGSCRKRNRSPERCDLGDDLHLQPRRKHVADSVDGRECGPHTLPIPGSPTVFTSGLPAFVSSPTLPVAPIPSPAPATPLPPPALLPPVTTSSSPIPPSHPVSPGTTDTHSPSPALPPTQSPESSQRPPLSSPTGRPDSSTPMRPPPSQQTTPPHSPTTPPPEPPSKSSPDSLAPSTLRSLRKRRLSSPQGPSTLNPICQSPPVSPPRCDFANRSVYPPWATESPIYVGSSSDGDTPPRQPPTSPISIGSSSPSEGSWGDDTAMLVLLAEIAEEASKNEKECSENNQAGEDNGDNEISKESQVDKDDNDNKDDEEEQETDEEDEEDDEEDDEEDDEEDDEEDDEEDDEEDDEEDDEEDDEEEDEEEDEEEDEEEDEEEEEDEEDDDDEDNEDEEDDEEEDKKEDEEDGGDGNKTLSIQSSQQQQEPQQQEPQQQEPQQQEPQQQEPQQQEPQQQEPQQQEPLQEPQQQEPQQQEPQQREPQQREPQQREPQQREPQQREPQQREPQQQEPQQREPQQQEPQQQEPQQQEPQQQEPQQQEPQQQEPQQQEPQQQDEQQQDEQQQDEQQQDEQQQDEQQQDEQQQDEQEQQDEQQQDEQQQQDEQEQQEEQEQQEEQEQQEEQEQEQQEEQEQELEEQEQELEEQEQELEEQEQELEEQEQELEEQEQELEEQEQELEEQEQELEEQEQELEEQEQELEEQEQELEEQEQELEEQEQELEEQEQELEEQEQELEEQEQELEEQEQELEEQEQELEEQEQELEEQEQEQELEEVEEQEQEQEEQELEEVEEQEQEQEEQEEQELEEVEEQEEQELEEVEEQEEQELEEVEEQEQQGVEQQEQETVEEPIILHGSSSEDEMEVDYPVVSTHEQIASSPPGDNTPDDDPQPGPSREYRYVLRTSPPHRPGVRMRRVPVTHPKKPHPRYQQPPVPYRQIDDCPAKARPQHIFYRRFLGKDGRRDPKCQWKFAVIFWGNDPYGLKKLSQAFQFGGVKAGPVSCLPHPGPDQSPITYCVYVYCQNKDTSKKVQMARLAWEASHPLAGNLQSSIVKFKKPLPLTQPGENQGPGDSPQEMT
Kind of assay: KSHV LANA DNA-binding disruption – biochemical, fluorescence polarization, cherry-picked samples, dose response (AID 504725).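 Also: fluorescence polarization of a labeled DNA duplex reporting LANA DNA binding; potency is for inhibitors that block LANA binding to the DNA.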 Also on record: species or system Human gammaherpesvirus 8.

Another assay concerns the target Bcl-2-like protein 1 (Homo sapiens, UniProt Q07817). Kind of assay: blockers of BCLXL peptide binding – biochemical, fluorescence polarization, 1536-well, selectivity assay for MCL1 inhibitor project, dose response (AID 2218).
A short description of assay [7]: blockers of HIV-1 envelope-mediated cell-cell fusion – cherry-pick, dose response (AID 652057). The class given is functional, cell-based.
The nature of assay [8]: blockers of HIV-1 ZM109 envelope-driven cell-cell fusion – HeLa effector, CEM target cells, luciferase, cherry-pick, dose response (AID 652058).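 Also: luciferase signal from HIV-1 Env mediated cell-cell fusion of effector and target cells.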 The class given is functional, cell-based.
The target of assay [9] is T4, Rac GTPase-activating protein 1 (Homo sapiens, UniProt Q9H0H5).
T4 sequence (Q9H0H5 whole entry): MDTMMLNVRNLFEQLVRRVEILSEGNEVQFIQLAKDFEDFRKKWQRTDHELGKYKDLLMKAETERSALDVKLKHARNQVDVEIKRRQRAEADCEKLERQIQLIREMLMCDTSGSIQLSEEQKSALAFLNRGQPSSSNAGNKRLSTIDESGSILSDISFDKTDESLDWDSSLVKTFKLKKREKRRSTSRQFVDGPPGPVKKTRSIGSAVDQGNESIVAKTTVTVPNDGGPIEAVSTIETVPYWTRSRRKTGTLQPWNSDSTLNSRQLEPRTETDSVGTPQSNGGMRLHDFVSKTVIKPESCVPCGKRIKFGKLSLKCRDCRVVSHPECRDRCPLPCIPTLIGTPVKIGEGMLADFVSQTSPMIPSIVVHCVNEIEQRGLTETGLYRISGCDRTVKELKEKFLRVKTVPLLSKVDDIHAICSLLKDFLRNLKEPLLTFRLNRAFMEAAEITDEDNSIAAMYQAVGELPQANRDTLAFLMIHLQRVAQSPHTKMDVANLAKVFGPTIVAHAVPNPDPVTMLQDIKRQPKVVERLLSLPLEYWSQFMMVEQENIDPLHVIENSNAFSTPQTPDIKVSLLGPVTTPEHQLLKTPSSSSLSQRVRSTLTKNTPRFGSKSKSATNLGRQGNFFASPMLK
Kind of assay: blockers of MgcRacGAP-driven Rac1 GTP hydrolysis – biochemical, ADP Hunter fluorescence, primary and confirmatory, confirmation (AID 624330). The class given is functional.

The nature of assay [10]: off-target signal loss in HeLa-CEM21 co-culture – HeLa F-luc CTL cells, cherry-picked, counter-screen for HIV-1 Env fusion inhibitor project, dose response (AID 652040).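 Also: potency for signal decrease marking cytotoxic or nonspecific inhibition.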 The class given is functional, cell-based.

Structures are written as SMILES. Active and inactive are the calls of the source. Where only a bound is given, the exact number is not on record here.

Bcl-2-like protein 1, sequence (Q07817 whole entry, the tested form may be a part): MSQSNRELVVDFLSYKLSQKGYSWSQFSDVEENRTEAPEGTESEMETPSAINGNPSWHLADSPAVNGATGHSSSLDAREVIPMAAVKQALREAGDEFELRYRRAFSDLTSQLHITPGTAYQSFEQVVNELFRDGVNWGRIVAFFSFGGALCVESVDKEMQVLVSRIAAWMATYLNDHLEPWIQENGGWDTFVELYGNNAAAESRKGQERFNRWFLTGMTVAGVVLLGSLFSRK

Regarding `COc1cccc2c(N3CCN(C(=O)c4ccc(Cl)cc4)CC3)cc(C)nc12`, in the assay with Candida albicans, the AC50 was > 260 µM (inactive).
With `COc1cc2c(cc1OC)-c1cc(NCc3ccc(F)cc3)nc(=O)n1CC2`, the IC50 on Hexokinase HKDC1 and at Hexokinase-1 was > 80 µM (inactive) throughout.
`CN(C)c1ccc(O)c2c1CC1CC3[C@@H](N(C)C)C(O)=C(C(N)=O)C(=O)[C@]3(O)C(O)=C1C2=O` (stereo partly drawn): the IC50 was 9.39 µM (active) in [1], > 109 µM (not active) against NS3, > 109 µM (not active) at Bcl-2-like protein 1 and 120 µM (active) in [9]. For the same molecule, in assay [2], the CC50 was > 40 µM (active). Further, the EC50 in assay [3] was 0.079 µM (active); in the assay on Streptococcus, 0.173 µM (active). Besides, the AC50 in the assay with Escherichia coli [4] is 11.2 µM (active); in the assay on Escherichia coli [5], 1.06 µM (active); in [6], < 0.26 µM (active); in the assay with Salmon testes DNA, 46.2 µM (active); on ORF 73, 25.6 µM (active); in assay [7], < 0.26 µM (active). Besides, the AC50 in assay [8] and in assay [10] was < 0.26 µM (active) throughout.

By AC50 is commonly meant the concentration giving half of the maximal activity seen. For orientation: IC50 means the concentration that gives 50% inhibition. A word on the CC50: it is the concentration giving 50% cytotoxicity. One may read the EC50 as the concentration at which the effect is half-maximal.
